Key:
[1] = target: T1, Endothelin-converting enzyme 1 (Homo sapiens) (UniProt P42892); test: In vitro inhibition to recombinant human endothelin converting enzyme; parameters: concentration or dose not given beside the values; conditions: concentration not given here
T1 sequence (whole entry): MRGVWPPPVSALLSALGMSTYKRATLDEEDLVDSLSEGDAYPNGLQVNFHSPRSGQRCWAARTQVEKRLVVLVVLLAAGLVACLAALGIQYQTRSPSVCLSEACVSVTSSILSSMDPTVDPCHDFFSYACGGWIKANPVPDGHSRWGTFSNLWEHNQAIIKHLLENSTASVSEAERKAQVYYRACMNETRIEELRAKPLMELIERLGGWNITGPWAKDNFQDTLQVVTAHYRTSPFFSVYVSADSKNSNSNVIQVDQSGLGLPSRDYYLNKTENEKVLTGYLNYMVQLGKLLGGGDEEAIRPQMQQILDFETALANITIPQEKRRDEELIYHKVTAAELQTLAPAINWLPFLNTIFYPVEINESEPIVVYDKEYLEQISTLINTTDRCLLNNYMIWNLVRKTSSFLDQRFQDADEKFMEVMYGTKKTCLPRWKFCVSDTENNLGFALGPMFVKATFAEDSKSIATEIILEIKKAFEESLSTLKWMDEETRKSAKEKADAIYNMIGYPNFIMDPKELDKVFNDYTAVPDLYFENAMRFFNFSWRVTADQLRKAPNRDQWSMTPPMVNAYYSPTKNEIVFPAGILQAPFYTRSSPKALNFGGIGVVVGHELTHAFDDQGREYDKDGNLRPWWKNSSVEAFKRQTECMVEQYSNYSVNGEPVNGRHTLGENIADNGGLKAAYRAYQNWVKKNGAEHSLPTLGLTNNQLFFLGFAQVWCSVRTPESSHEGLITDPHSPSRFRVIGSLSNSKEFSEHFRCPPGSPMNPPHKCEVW

[2] = target: T2, Endothelin-converting enzyme 1 (Homo sapiens, UniProt P42892); test: In vitro inhibition against recombinant human Endothelin converting enzyme 1 activity
T2 sequence (P42892 whole entry): T1 sequence (whole entry)

[3] = target: Neprilysin (Homo sapiens, UniProt P08473)
Chain of Neprilysin (P08473 whole entry): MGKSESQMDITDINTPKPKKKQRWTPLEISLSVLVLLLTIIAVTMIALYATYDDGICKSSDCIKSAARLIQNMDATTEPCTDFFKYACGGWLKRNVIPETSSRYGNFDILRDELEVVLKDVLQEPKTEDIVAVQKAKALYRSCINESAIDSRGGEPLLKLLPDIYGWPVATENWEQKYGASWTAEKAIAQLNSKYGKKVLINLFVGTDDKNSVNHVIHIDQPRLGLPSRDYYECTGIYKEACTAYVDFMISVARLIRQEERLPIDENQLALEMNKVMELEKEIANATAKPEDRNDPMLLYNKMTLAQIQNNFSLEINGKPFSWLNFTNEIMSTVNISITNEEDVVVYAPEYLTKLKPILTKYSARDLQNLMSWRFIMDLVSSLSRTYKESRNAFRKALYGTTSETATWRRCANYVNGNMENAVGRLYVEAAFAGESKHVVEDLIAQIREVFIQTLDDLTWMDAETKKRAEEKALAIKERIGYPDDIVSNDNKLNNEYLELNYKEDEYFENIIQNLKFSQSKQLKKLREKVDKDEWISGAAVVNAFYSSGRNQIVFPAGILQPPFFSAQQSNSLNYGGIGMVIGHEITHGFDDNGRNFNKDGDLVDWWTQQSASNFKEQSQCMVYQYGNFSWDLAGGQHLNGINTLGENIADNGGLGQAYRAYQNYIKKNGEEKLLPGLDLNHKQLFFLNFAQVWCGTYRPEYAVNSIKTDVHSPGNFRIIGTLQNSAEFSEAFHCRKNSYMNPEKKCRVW
Description: Inhibition of neutral endopeptidase 24.11(NEP)

## O=P(O)(O)C(Cc1cccc2c1OCO2)N[C@H](Cc1ccc(-c2ccccc2)cc1)c1nnn[nH]1 (some centres not stated)
[1]
  inhibition: 50%
[2]
  IC50: 1100 nM

## O=P(O)(O)C(Cc1cccc2cccnc12)N[C@@H](Cc1ccc(-c2ccccc2)cc1)c1nnn[nH]1 (some centres not stated)
[1]
  inhibition: 93%
[2]
  IC50: 23 nM

## O=C(O)c1n[nH]c([C@H](Cc2ccc(-c3ccccc3)cc2)NCP(=O)(O)O)n1
[1]
  inhibition: 14%

## O=P(O)(O)C(Cc1ccc2ccccc2c1)N[C@H](Cc1ccc(-c2ccccc2)cc1)c1nnn[nH]1 (some centres not stated)
[1]
  inhibition: 47%
[2]
  IC50: 1400 nM

## O=P(O)(O)CN[C@@H](CCc1ccccc1)c1nnn[nH]1
[1]
  inhibition: 0%

## O=P(O)(O)CN[C@@H](Cc1ccc(-c2ccccc2)cc1)c1nnn[nH]1
[2]
  IC50: 410 nM

## O=P(O)(O)CN[C@@H](Cc1c[nH]c2ccccc12)c1nnn[nH]1
[1]
  inhibition: 10%

## O=P(O)(O)CN[C@@H](Cc1ccccc1)c1nnn[nH]1
[1]
  inhibition: 0%

## O=P(O)(O)C(Cc1ccc2c(c1)OCO2)N[C@H](Cc1ccc(-c2ccccc2)cc1)c1nnn[nH]1 (some centres not stated)
[1]
  inhibition: 76%
[2]
  IC50: 390 nM

## SCC(Cc1ccc(-c2ccccc2)cc1)c1nnn[nH]1 (configuration not stated)
[1]
  inhibition: 26%

## O=C(O)C[C@H](Cc1ccc(-c2ccccc2)cc1)NCP(=O)(O)O
[1]
  inhibition: 0%

## O=C(O)CNC(=O)C(CS)Cc1ccccc1 (configuration not stated) [THIORPHAN]
[1]
  inhibition: 9%
[2]
  IC50: > 100000 nM

## O=C(O)[C@H](Cc1ccc(-c2ccccc2)cc1)NCP(=O)(O)O
[1]
  inhibition: 20%

## O=P(O)(O)C(Cc1ccc2ccccc2c1)N[C@@H](Cc1ccc(-c2ccccc2)cc1)c1nnn[nH]1 (some centres not stated) [CGS-314447]
[1]
  inhibition: 91%
[2]
  IC50: 45 nM

## O=P(O)(O)CCC(Cc1ccc(-c2ccccc2)cc1)c1nnn[nH]1 (configuration not stated)
[1]
  inhibition: 0%

## O=P(O)(O)C(N[C@H](Cc1ccc(-c2ccccc2)cc1)c1nnn[nH]1)c1cccc2ccccc12 (some centres not stated)
[1]
  inhibition: 49%
[2]
  IC50: > 1000 nM

## O=P(O)(O)CN[C@@H](Cc1ccc2ccccc2c1)c1nnn[nH]1
[1]
  inhibition: 0%

## O=P(O)(O)CN[C@@H](Cc1ccc(-c2ccccc2)cc1)c1nc[nH]n1
[1]
  inhibition: 0%

## CC(C)C[C@H](NP(=O)(O)O[C@@H]1O[C@@H](C)[C@H](O)[C@@H](O)[C@H]1O)C(=O)N[C@@H](Cc1c[nH]c2ccccc12)C(=O)O [PHOSPHORAMIDON]
[3]
  IC50: 30 nM
[1]
  inhibition: 47%

## O=P(O)(O)C(Cc1ccccc1)N[C@H](Cc1ccc(-c2ccccc2)cc1)c1nnn[nH]1 (some centres not stated)
[1]
  inhibition: 18%
[2]
  IC50: 5000 nM

## O=P(O)(O)C(Cc1cccc2cccnc12)N[C@H](Cc1ccc(-c2ccccc2)cc1)c1nnn[nH]1 (some centres not stated)
[1]
  inhibition: 22%
[2]
  IC50: > 1000 nM

## O=P(O)(O)CN[C@H](Cc1ccc(-c2ccccc2)cc1)c1nnn[nH]1
[1]
  inhibition: 0%

## O=P(O)(O)C(Cc1ccccc1)N[C@@H](Cc1ccc(-c2ccccc2)cc1)c1nnn[nH]1 (some centres not stated)
[1]
  inhibition: 83%
[2]
  IC50: 280 nM

## O=P(O)(O)C(Cc1cccc2ccccc12)N[C@@H](Cc1ccc(-c2ccccc2)cc1)c1nnn[nH]1 (some centres not stated)
[1]
  inhibition: 95%
[2]
  IC50: 17 nM

## O=P(O)(CCc1ccc2ccccc2c1)N[C@@H](Cc1ccc(-c2ccccc2)cc1)c1nnn[nH]1
[1]
  inhibition: 0%

## O=P(O)(O)C(Cc1cccc2ccccc12)N[C@H](Cc1ccc(-c2ccccc2)cc1)c1nnn[nH]1 (some centres not stated)
[1]
  inhibition: 85%
[2]
  IC50: 160 nM

## O=P(O)(O)CC(Cc1ccc(-c2ccccc2)cc1)c1nnn[nH]1 (configuration not stated)
[1]
  inhibition: 8%

## O=P(O)(O)C(Cc1ccc2c(c1)OCO2)N[C@@H](Cc1ccc(-c2ccccc2)cc1)c1nnn[nH]1 (some centres not stated)
[1]
  inhibition: 85%
[2]
  IC50: 93 nM

## O=P(O)(O)C(Cc1cccc2c1OCO2)N[C@@H](Cc1ccc(-c2ccccc2)cc1)c1nnn[nH]1 (some centres not stated)
[1]
  inhibition: 87%
[2]
  IC50: 110 nM

## O=P(O)(O)C(N[C@@H](Cc1ccc(-c2ccccc2)cc1)c1nnn[nH]1)c1cccc2ccccc12 (some centres not stated)
[1]
  inhibition: 14%
[2]
  IC50: > 1000 nM

## O=P(O)(O)CN[C@@H](Cc1ccc(-c2ccccc2)cc1)c1nn[nH]n1
[1]
  inhibition: 79%

From ChEMBL document CHEMBL1129909, “Potent non-peptidic dual inhibitors of endothelin-converting enzyme and neutral endopeptidase 24.11” (Bioorg Med Chem Lett, 1997)
